{"source": "patent US8404655B2", "about": "“Inhibition of palmitoyl acyl transferase expression and/or activity for the regulation of antiproliferative factor activity” (University of Florida Research Foundation, Inc., priority 2007, dated 2013)", "key": {"E-cadherin mRNA": {"system": "E-cadherin mRNA", "assay": "Quantitative real-time PCR of E-cadherin mRNA in NB cells", "assay_type": "cell-based, human", "details": "2.5 nM APF alone or with nonsense siRNA, 48 hours", "description": "(§1) RNA was assessed by visualization of the 28S/18S ribosomal RNA ratio on a 1% agarose gel, and total RNA concentration determined by measuring the absorbance of each sample at 260 nm and 280 nm using a Gene Quant RNA/DNA Calculator (Pharmacia Biotech). Quantitative real-time PCR for gene expression was performed using Quantitect Primers (Qiagen), SYBR Green RT-PCR kit reagents (Qiagen), and a Roche System II Light-Cycler (software version 3.5). Samples were tested in triplicate runs, and specific mRNA levels quantified and compared to mRNA levels for β-actin using real-time PCR analysis software from Applied Biosystems."}, "CKAP4/p63": {"system": "CKAP4/p63", "assay": "Immunofluorescent localization of CKAP4/p63 in HeLa cells", "assay_type": "cell-based, human", "details": "APF 20 nM, 48 hours", "description": "Double stranded siRNA targeting ZDHHC2 was purchased from Dharmacon. HeLa cells or cells explanted from IC patients (IC cells) were trypsinized for 10 minutes at room temperature, centrifuged in growth medium (MEM with 10% heat inactivated FBS, 1% antibiotic/antimycotics solution, and 1% L glutamine), and the cell pellet was resuspended in serum-free medium at a density of 1×10^4 cells/ml. One mL of the cell suspension was then transferred to a sterile 2 mm cuvette with 20 μM siRNA, and electroporated at 160 V/500 μF capacitance using a BioRad Gene Pulser Xcell. HeLa cells were then plated onto a 96 well plate for the thymidine incorporation assay, and both HeLa and IC cells were plated onto an 8 well Lab-Tek tissue culture slide for confocal microscopy.\nFor confocal microscopy, after 96 hours of incubation the medium was removed from the wells and cells were fixed using ethanol/acetone (1:1) for 15 min at room temperature, washed three times with 1×PBS, and incubated with mouse monoclonal anti-CKAP4/p63 antibodies (“anti-CLIMP-63”, clone G1/296; Alexis Biochemicals) in PBS, for 2 hrs at 37° C. Cells were then washed three times with PBS and further incubated with fluorescein isothiocyanate (FITC)-labeled secondary antibody diluted in PBS (goat anti-Mouse IgG 1:2000; Zymed) for 2 hrs at 37° C. […]"}, "vimentin": {"system": "vimentin", "assay": "Western blot of vimentin protein in HeLa cells", "assay_type": "cell-based, human", "details": "APF 20 nM, 48 hours", "description": "Western Blot Analysis—Cells were lysed in ice-cold RIPA buffer containing protease inhibitors (Pierce), sonicated, and centrifuged for 15 minutes at 4° C. The supernatant protein concentration was measured using a Folin reagent-based protein assay kit (BioRad). Proteins were separated by electrophoresis using 4-12% NuPAGE Novex Bis-Tris polyacrylamide gels in MOPS running buffer (Invitrogen) and then transferred to nitrocellulose. Membranes were blocked for 2 hours at room temperature in TBST buffer (Tris-buffered saline, pH 7.4, with 0.1% Tween 20) containing 5% nonfat milk and incubated with specific antibodies against vimentin (diluted 1:2000; BD Pharmingen) or ZO-1 (diluted 1:125; Zymed) overnight at 4° C. The membranes were subsequently washed with TBST, incubated for 1 hour at room temperature in HRP-conjugated goat anti-mouse (diluted 1:4000, Santa Cruz Biotechnology) or goat anti-rabbit (diluted 1:10000; Pierce) secondary antibodies, and developed by enhanced chemiluminescence (Pierce). To assess equal loading of protein, the membranes were stripped and reprobed for β-actin (diluted 1:5000; Sigma). […] The protein bands of interest were quantified using ImageJ and the integrated signal densities normalized first to β-actin (the loading control) and subsequently expressed in terms of the fractional abundance relative to untreated control cells."}, "ZO-1 mRNA": {"system": "ZO-1 mRNA", "assay": "Quantitative real-time PCR of ZO-1 mRNA in NB cells", "assay_type": "cell-based, human", "details": "2.5 nM APF alone or with nonsense siRNA, 48 hours, normalized to β-actin", "description": "as §1"}, "bladder epithelial cell": {"system": "bladder epithelial cell", "details": "cited from earlier work"}, "HeLa cells": {"system": "HeLa cells", "assay": "3H-thymidine incorporation (cell proliferation), HeLa cells", "assay_type": "cell-based, human", "details": "APF 0.25-250 nM, 48 hours, serum starvation", "description": "Cell proliferation was measured by 3H-thymidine incorporation into ZDHHC2 siRNA-treated HeLa cells. Briefly, electroporated cells that received ZDHHC2 or control nonsense siRNA were plated into 96 well culture plates and incubated at 37° C. in a 5% CO2 atmosphere for 96 hours. Purified lyophilized synthetic APF was re-suspended in acetonitrile/distilled water (1:1), diluted in serum-free MEM (containing only glutamine and antibiotics/antimycotics), and applied to HeLa cells; cell controls received acetonitrile/distilled water diluted in serum-free MEM alone. Cells were then incubated for an additional 48 hours. The cell contents were harvested and methanol-fixed onto glass fiber filter paper, and the amount of radioactivity incorporated determined. Significant inhibition of ^3H-thymidine incorporation was defined as a mean decrease in counts per minute of greater than 2 standard deviations from the mean of control cells for each plate.\nsiRNA—Double-stranded siRNA targeting ZDHHC2 (available from GenBank/EMBL/DDBJ under accession no. NM_016353) was purchased from Dharmacon (ON-TARGET plus). […]\n^3H-Thymidine Incorporation—Cell proliferation was measured by 3H-thymidine incorporation into the DNA of HeLa or NB epithelial cells. […] The cell contents were harvested and methanol-fixed onto glass fiber filter paper, and the amount of radioactivity incorporated determined. […]"}, "[1]": {"system": "normal primary bladder (NB) epithelial cells", "assay": "3H-thymidine incorporation (cell proliferation), NB epithelial cells", "assay_type": "cell-based, human", "details": "APF 0.25-250 nM, 48 hours, serum starvation", "description": "Normal primary bladder (NB) epithelial cells were isolated from patients as previously described (Conrads et al., 2006; Keay et al., 2000; Keay et al., 2004; Keay et al., 1996). Cells were propagated in DMEM-F12 (Media-Tech) with 10% heat inactivated FBS, 1% antibiotic/antimycotic solution, 1% L-glutamine, 0.25 U/ml insulin (Sigma), and 5 ng/ml human epidermal growth factor (R & D Systems) at 37° C. in a 5% CO2 atmosphere, and characterized by binding of AE-1/AE-3 pancytokeratin antibodies (Signet) as previously described (Keay et al., 1996; Keay et al., 2004).\n^3H-Thymidine Incorporation—Cell proliferation was measured by 3H-thymidine incorporation into the DNA of HeLa or NB epithelial cells. […] Cells were then incubated at 37° C. in a 5% CO2 atmosphere for 48 hours. The cell contents were harvested and methanol-fixed onto glass fiber filter paper, and the amount of radioactivity incorporated determined. Significant inhibition of ^3H-thymidine incorporation was defined as a mean decrease in counts per minute of greater than 2 standard deviations from the mean of control cells for each plate."}, "vimentin mRNA": {"system": "vimentin mRNA", "assay": "Quantitative real-time PCR of vimentin mRNA in NB cells", "assay_type": "cell-based, human", "details": "2.5 nM APF alone or with nonsense siRNA, 48 hours, normalized to β-actin", "description": "as §1"}}}
{"substance": "Sialoglycopeptide: sialic acid α-2,3 galactose β1-3-N-acetylgalactosamine α-O-linked to N-terminal threonine of Frizzled 8 nonapeptide (TVPAAVVVA) [APF, antiproliferative factor]", "values": [{"measurement": "change of E-cadherin mRNA levels", "setting": "E-cadherin mRNA", "value": "dramatically increased"}, {"measurement": "CKAP4 localization after APF treatment", "setting": "CKAP4/p63", "value": "translocated to the nucleus and nucleolus"}, {"measurement": "expression of vimentin following APF treatment", "setting": "vimentin", "value": "reduced"}, {"measurement": "reduction of ZO-1 mRNA levels", "setting": "ZO-1 mRNA", "value": "~93", "unit": "%"}, {"measurement": "EC50 (potency of APF)", "setting": "bladder epithelial cell", "value": "picomolar range"}, {"measurement": "inhibition of HeLa cell proliferation (3H-thymidine incorporation)", "setting": "HeLa cells", "value": "concentration dependent manner"}, {"measurement": "inhibition of NB cell proliferation (3H-thymidine incorporation)", "setting": "[1]", "value": "concentration dependent manner"}, {"measurement": "reduction of vimentin mRNA levels", "setting": "vimentin mRNA", "value": "~97", "unit": "%"}]}
